Experiments:
rat-organ homogenates [1] = conditions: cited from earlier work
rat erythrocyte (RBC) = conditions: cited from earlier work
rat-organ homogenates [2] = conditions: cited from earlier work; remark: listed apart in the source
prostate cancer = assay: Prostate cancer patients (Example VIII A); type: in vivo, human; conditions: daily 10 μg to 5 mg/Kg; no significant differences between the four groups
Procedure: A group of 40 men aged 55-75 suffering from prostate cancer receive a daily dosage of between 10 μg and 5 mg/Kg body weight of KST-201, KST-213, KST-301 or KST-401 (10 patients per compound). Examination of the patients by clinical, radiographic and histopathological tests show significant shrinkage in tumors, and signs of cell death in 38% of the patients; there are no significant differences between the four treatment groups.

colon cancer = assay: Colon cancer patients (Example VIII E); type: in vivo, human; conditions: for Dissemination of the tumors: daily bolus injections (intravenous or intramuscular) of 2 g; for Cancer marker carcinoembryonic antigen (CEA) / Progression of the tumor: intravenous infusion 2 g daily for three weeks
Procedure: Eight patients suffering from advanced colon cancer are treated daily for three weeks with an intravenous infusion of 2 g of the compounds KST-201, KST-213, KST-301 or KST-401 dissolved in saline. Two patients are assigned to each compound. The compounds are dissolved in sterile saline. […] Progression of the tumor is also arrested over the treatment period.
Another eight patients with terminal colon cancer are treated by daily bolus injections (intravenous or intramuscular) of 2 g of KST-201, KST-213, KST-301 or KST-401.

ovarian cancer = assay: Ovarian cancer patients (Example VIII D); type: in vivo, human; conditions: daily gelatin capsule 200 mg
Procedure: A study is carried out in a group of 40 women with ovarian cancer of various grades to determine the effect of treatment with compounds of KST-201, KST-213, KST-301 and KST-401. The administration protocol involves daily administration of a gelatin capsule containing 200 mg of active compound.

breast cancer = assay: Breast cancer prevention, skin patch (Example VIII C); type: in vivo, human; conditions: transdermal patch 10 mg to 100 mg daily, one-year study
Procedure: This study investigates whether KST-201, KST-213, KST-301 and KST-401 administered transdermally each day through a skin patch aid in preventing breast cancer or metastatic cancer following cancer therapy. Patches are prepared with a lipophilic carrier which is readily absorbed through the skin (glycerol cold cream containing glycerin and peanut oil). The HT compound is mixed with the lipophilic cream such that each patch comprises 10 mg to 100 mg of active compound. The patch is applied to the skin each day, and rapid absorption occurs. After two hours, the patch is removed.

HSV-1 = HSV-1 replication in infected Vero cells (plaque assay); type: cell-based, Herpes Simplex Virus-Type 1; conditions: at CD50, 75% and 50% of CD50; 24, 48, 72 h
Procedure: For this purpose HSV-1 replication at 24, 48 and 72 h was examined in the presence or absence of varying concentrations of the polyphenol.
The SI is the ratio of the CD50 divided by a selected inhibitory concentration (IC %).
Viral inhibition by Tolan-3 appeared to occur after viral entry into cells. […] Subsequently, the compound was removed and replaced with culture medium alone, and the incubated continued for 48 or 72 more hrs. In a second experiment, HSV-1 infected Vero cells were incubated with 350 μM Tolan-3 for 48 h. Thereafter, the Tolan-3 was removed and replaced by medium and the incubation continued for an additional 24 h. Viral titers were calculated by a standard plaque assay.

bladder cancer = assay: Bladder cancer patients (Example VIII B); type: in vivo, human; conditions: intravenous 10 μg to 5 mg/kg over three months; for Patients with significant remission: no differences between compounds
Procedure: A group of 20 men and 20 women aged 50-75 with bladder cancer are treated by intravenous injection of between 10 μg and 5 mg/kg of KST-201, KST-213, KST-301 or KST-401. Each compound is given to a group of 5 men and 5 women) over a period of three months. Clinical, radiographic and histopathological tests show significant remission in 35% of patients, accompanied by signs of cell death in 45%. There are no significant differences between the results with the four compounds.

Vero cells = assay: Cytotoxicity (CD50) on Vero cells; type: cell-based; conditions: 48 hours of exposure
From the text: See Example II for tumor cell cytotoxicity of these compounds. […] NAB group 32 contains two compounds, Tolan-2 (also designated herein as KST-201) and Stil-2. Based on the NAB, they were classified as topological isomers. However, chemically they differ because Stil-2, a […], contained a double bonded linker, while Tolan-2 contained a triple bonded linker. The cytotoxicity of the two molecules on Vero cells differed markedly: Tolan-2 was less toxic than Stil-2.

Mushroom tyrosinase = assay: Inhibition of mushroom tyrosinase activity; type: biochemical; conditions: concentration not given
Procedure: All chemical used for reagents were purchased from Sigma Chemical Company. KST201 at each tested concentration (1000, 250 and 100 μM) was dissolved in 10% ethanol from a master mixture of the drug prepared at 0.1M in 100% ethanol.
Mushroom tyrosinase (Sigma) was diluted in 50 mM phosphate buffer, pH 6.5 to yield a concentration of 16 U/μl. […] A master mix containing 0.5 mM L-DOPA [3,4-dihydroxy-1-phenylalanine], 10 mM Sodium L-tyrosine in 50 mM phosphate buffer, pH 6.5 was prepared. The KST-201 dilutions were preincubated with the enzyme for 20 minutes. The samples were pipetted into 24 well plates and the master mixture added quickly. The reaction was read using a kinetic format in which wells were read every 30 seconds over a course of 10 minutes at a wavelength of 475 nm using a Synergy HT Plate reader. A kinetic curve was generated for each sample compared to a total reaction with mushroom tyrosinase without a drug (total).

Compound	Inhibition (%) of Fe2+ − VitC induced level of MDA at 15 μM, In rat brain (rat-organ homogenates [1])	Inhibition (%) of Fe2+ − VitC induced level of MDA at 15 μM, In rat kidney (rat-organ homogenates [1])	Inhibition (%) of Fe2+ − VitC induced level of MDA at 15 μM, In rat liver (rat-organ homogenates [1])	Inhibition (%) of RBC hemolysis induced by H2O2 at 4 μM (rat erythrocyte (RBC))	Inhibition (%) of autooxidation MDA level at 7.5 μM, In rat brain (rat-organ homogenates [2])	Inhibition (%) of autooxidation MDA level at 7.5 μM, In rat kidney (rat-organ homogenates [2])	Inhibition (%) of autooxidation MDA level at 7.5 μM, In rat liver (rat-organ homogenates [2])	CD50 (Vero cells)	Log CD50 (Vero cells)	also measured
Oc1ccc(/C=C/c2ccccc2)cc1O [trans-3,4-Dihydroxystilbene]	96.68%	89.23%	99.27%	97.58%	–	–	–	–	–	–
Oc1ccc(/C=C/c2ccc(O)cc2O)cc1 [trans-2,4,4′-Trihydroxystilbene]	94.40%	87.69%	92.46%	81.85%	90.91%	66.46%	93.85%	–	–	–
Oc1ccc(/C=C/c2ccccc2)c(O)c1 [trans-2,4-Dihydroxystilbene]	55.19%	39.08%	42.58%	43.72%	30.07%	32.27%	42.31%	–	–	–
Oc1ccc(/C=C/c2ccccc2)cc1 [trans-4-Hydroxystilbene]	43.36%	29.23%	32.85%	-5.14%	6.64%	19.88%	−2.31%	–	–	–
Oc1ccc(C#Cc2ccc(C(F)(F)F)cc2)cc1 [KST-213, 4-hydroxy-4′-trifluoromethyltolan]	–	–	–	–	–	–	–	48.2 µM	1.68	Patients with significant shrinkage in tumors, and signs of cell death (prostate cancer): 38%; Dissemination of the tumors (colon cancer): dissemination of the tumors is diminished; Cancer marker carcinoembryonic antigen (CEA) (colon cancer): significant reduction; Progression of the tumor (colon cancer): arrested; Rate of production of ovarian cancer markers (Muc-1, Sp17) (ovarian cancer): significant decrease; Tumor growth during study period (ovarian cancer): Tumors regress or show no further growth; Breast cancer or metastatic cancer in high-risk group (breast cancer): does not show any evidence of breast cancer or other metastatic cancer; Effect on HSV-1 viral replication in Vero cells (in words) (HSV-1): substantially inhibited; Patients with signs of cell death (bladder cancer): 45%; Patients with significant remission (bladder cancer): 35%
Oc1ccc(/C=C/c2ccccc2)cc1 [Stil-1]	–	–	–	–	–	–	–	131 µM	2.12	–
Oc1ccc(/C=C/c2ccc(O)cc2)cc1 [Stil-2]	–	–	–	–	–	–	–	53.3 µM	1.73	Effect on HSV-1 viral replication in Vero cells (in words) (HSV-1): no substantial reduction in viral replication
Oc1cc(O)cc(/C=C/c2cc(O)cc(O)c2)c1 [Stil-4, tetrahydroxystilbene]	–	–	–	–	–	–	–	>200 µM	2.30	–
Oc1cc(O)cc(C#Cc2cc(O)cc(O)c2)c1 [KST-401, 3,3′,5,5′-tetrahydroxytolan]	–	–	–	–	–	–	–	103 µM	2.01	Patients with significant shrinkage in tumors, and signs of cell death (prostate cancer): 38%; Dissemination of the tumors (colon cancer): dissemination of the tumors is diminished; Cancer marker carcinoembryonic antigen (CEA) (colon cancer): significant reduction; Progression of the tumor (colon cancer): arrested; Rate of production of ovarian cancer markers (Muc-1, Sp17) (ovarian cancer): significant decrease; Tumor growth during study period (ovarian cancer): Tumors regress or show no further growth; % inhibition of mushroom tyrosinase activity (Mushroom tyrosinase): 22.7±6.5%; Breast cancer or metastatic cancer in high-risk group (breast cancer): does not show any evidence of breast cancer or other metastatic cancer; Effect on HSV-1 viral replication in Vero cells (in words) (HSV-1): substantial viral inhibition; Patients with signs of cell death (bladder cancer): 45%; Patients with significant remission (bladder cancer): 35%
Oc1cc(O)cc(/C=C/c2ccccc2)c1 [trans-3,5-Dihydroxystilbene]	12.24%	0.62%	24.82%	19.97%	−5.24%	14.91%	−5.38%	–	–	–
Oc1ccc(/C=C/c2ccc(O)cc2)cc1 [trans-4,4′-Dihydroxystilbene]	90.66%	85.23%	68.37%	67.17%	85.31%	62.11%	89.23%	–	–	–
